The test in a line: Case report: with menstrual-cycle itching, elevated ALP and PBC/AIH overlap syndrome. It counts as in vivo, human. The following applies: person, Ursodiol 300 mg three times a day plus mycophenolate mofetil 500 mg four times a day for 1 year, together with replacement of Nuva Ring by copper IUD and dietary changes. An excerpt:
The itching was predominantly concentrated on hands, feet, back, and stomach area, and the symptoms disappeared as soon as menstruation began. They previously used Nuva Ring for about three years, followed by approximately 5.5 year hiatus. The medical history and gynecological clinical examination were not unusual, with the exception of elevated liver enzymes having been discovered about two years prior to visit. […] The initial treatment thus comprised short-term moderate amounts of Prednisone, with the regiment starting about the time of re-start of the Nuva Ring use. Approximately two months after the start of Prednisone regimen the patient was diagnosed with an overlap syndrome of Primary Biliary Cholangitis/Cirrhosis (PBC) and Autoimmune Hepatitis (AIH). […] New treatment regimen was implemented. Nuva Ring was replaced with a non-hormonal intrauterine device (copper) to enable treatment with immunosuppressive drugs. Additionally steroid drugs, Ursodiol (300 mg three times a day) and mycophenolate mofetil (Cellcept, 500 mg, four times a day), regimen was started in order to reduce AST levels, and continued for 1 year. Finally dietary changes eliminating foods that are rich in zinc and vitamin B12 were effected.

For `COc1c(C)c2c(c(O)c1C/C=C(\C)CCC(=O)OCCN1CCOCC1)C(=O)OC2` [mycophenolate mofetil], the “itching symptoms at the time of menstruation” value was “significant reduction of the itching symptoms”.
Take `C[C@H](CCC(=O)O)[C@H]1CC[C@H]2[C@@H]3[C@@H](O)C[C@@H]4C[C@H](O)CC[C@]4(C)[C@H]3CC[C@]12C` [Ursodiol]: the “itching symptoms at the time of menstruation” value was “significant reduction of the itching symptoms”.

The values are drawn from patent US20200121695A1, “COMPOSITIONS AND METHODS FOR TREATING ITCH, SKIN INFLAMMATION, AND PRURITUS” (priority 2017, published 2020).
